Experimental data taken from patent US20230348415A1, “BISPECIFIC ANTAGONISTS OF RETINOL-BINDING PROTEIN 4 THAT STABILIZE TRANSTHYRETIN TETRAMERS, THEIR PREPARATION, AND USE IN THE TREATMENT OF COMMON AGE-RELATED COMORBIDITIES” (The Trustees of Columbia University in the City of New York, priority 2020, published 2023).
“Also recorded” adds a separate entry of the source.

Key:
Abca4−/−/Rdh8−/− mice = assay: Photoreceptor preservation (ONL thickness) in Abca4−/−/Rdh8−/− mice; assay type: in vivo, mouse; settings: 25 mg/kg daily in chow, 10 weeks
Experimental: FIG. 11. Photoreceptor protection in (±)-44-treated Rdh8^−/−Abca4^−/− mice. […] Data analyzed by two-way ANOVA with Sidak post hoc test.
(±)-44 was formulated into a Picolab 5053 chow to ensure a daily dosing of 25 mg/kg of (±)-44. Long-term 10-week dosing of the compound formulated into a chow was conducted in Abca4^−/−/Rdh8-mice. The age-matched control group of wild-type C57BL/6J mice was kept on a standard Picolab 5053 chow. After 10 weeks of dosing, whole eyes were collected and fixed in the 2% glutaraldehyde/4% paraformaldehyde. Eyes were embedded in paraffin and sectioned at a thickness of 8 μm. Sections were counterstained using hematoxylin and eosin (H&E). Morphologic observations and light microscopy was performed.

hERG = hERG (Homo sapiens (Human), UniProt Q12809); assay: CiPA hERG QPatch Assay; assay type: cell-based; settings: five-point concentration-response, n = 2
Chain of hERG (Q12809 whole entry): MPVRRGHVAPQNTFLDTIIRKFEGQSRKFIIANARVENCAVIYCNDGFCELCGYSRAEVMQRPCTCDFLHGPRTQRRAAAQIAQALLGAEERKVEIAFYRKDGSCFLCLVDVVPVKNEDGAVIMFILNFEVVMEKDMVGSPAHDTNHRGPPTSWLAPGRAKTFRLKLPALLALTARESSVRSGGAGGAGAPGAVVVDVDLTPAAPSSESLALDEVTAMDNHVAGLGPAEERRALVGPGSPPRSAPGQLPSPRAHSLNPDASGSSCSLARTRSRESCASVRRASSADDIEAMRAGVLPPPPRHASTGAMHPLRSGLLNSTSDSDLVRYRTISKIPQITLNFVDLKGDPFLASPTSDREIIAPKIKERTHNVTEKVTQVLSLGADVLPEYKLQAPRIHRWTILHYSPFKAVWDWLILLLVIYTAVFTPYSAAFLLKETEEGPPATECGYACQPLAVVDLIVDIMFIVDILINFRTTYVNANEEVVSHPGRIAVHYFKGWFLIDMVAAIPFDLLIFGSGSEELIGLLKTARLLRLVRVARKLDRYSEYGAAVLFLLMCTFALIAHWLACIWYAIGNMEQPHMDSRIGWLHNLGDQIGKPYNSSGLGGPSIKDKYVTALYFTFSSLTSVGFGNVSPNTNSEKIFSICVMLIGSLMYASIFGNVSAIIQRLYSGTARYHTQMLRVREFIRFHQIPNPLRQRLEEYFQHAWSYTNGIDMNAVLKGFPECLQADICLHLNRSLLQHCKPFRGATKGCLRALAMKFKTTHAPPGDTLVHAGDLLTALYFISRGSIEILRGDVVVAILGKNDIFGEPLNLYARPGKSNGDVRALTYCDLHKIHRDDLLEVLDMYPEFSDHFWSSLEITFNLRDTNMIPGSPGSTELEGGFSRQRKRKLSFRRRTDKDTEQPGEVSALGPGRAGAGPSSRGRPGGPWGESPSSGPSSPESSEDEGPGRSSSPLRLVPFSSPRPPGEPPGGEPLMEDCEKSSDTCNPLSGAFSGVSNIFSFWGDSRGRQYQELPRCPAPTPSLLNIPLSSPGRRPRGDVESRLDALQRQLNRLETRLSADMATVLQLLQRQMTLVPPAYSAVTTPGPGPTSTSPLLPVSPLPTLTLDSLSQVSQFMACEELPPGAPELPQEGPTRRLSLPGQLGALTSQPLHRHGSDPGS

RBP4 = RBP4 (Homo sapiens (Human), UniProt P02753); assay: RBP4 SPA binding assay (displacement of 3H-retinol); settings: read-out: RBP4 SPA IC50
[1] = Plasma protein binding, mouse plasma; assay type: in vitro ADME; settings: CD-1, pH 7.4, read-out: % PPB (converted)
Experimental: Plasma protein binding (PPB) for compounds determination for compound (±)-44 in PBS (pH 7.4) was conducted by Eurofins using equilibrium dialysis of plasma with HPLC-UV/Vis detection.
The peak areas of the test compound in the buffer and test samples were used to calculate percent binding and recovery according to the following formulas:
• Areap=Peak area of analyte in protein matrix • Areab=Peak area of analyte in buffer • Areac=Peak area of analyte in control sample

[2] = Metabolic stability and clearance in rat liver microsomes; assay type: in vitro ADME; settings: 30 minute incubation
Experimental: (§1) The results of metabolic stability determinations for novel compounds and testosterone (positive control) were conducted in the presence of human, rat, mouse, and monkey liver microsomes. Values shown are percent of parent remaining after a 30 minute incubation. All measurements were done in duplicate. Assay results for testosterone were within an acceptable range.
(§2) Mixed-gender human liver microsomes (Lot #1710084), male Sprague-Dawley rat liver microsomes (Lot #1610290), male CD-1 mouse liver microsomes (Lot #1710069), and male Cynomolgous liver microsomes (Lot #1510193) were purchased from XenoTech. The reaction mixture, minus NADPH, was prepared as described below. The test article was added into the reaction mixture at a final concentration of 1 μM. The control compound, testosterone, was run simultaneously with the test article in a separate reaction. An aliquot of the reaction mixture (without cofactor) was equilibrated in a shaking water bath at 37° C. for 3 minutes. The reaction was initiated by the addition of cofactor, and the mixture was incubated in a shaking water bath at 37° C. Aliquots (100 μL) were withdrawn at 0, 10, 20, 30, and 60. […] Half-lives were calculated using GraphPad software, fitting to a single-phase exponential decay equation.

[3] = In vivo PK in CD-1 mice (IV and PO); parameters: species or system mouse; settings: male CD-1 mice
Experimental: • IV dosing vehicles: 3% DMA/45% PEG300/12% ethanol/40% sterile water • PO dosing vehicle: 2% Tween 80 in 0.9% saline • Dose formulation: The dose formulation was prepared by the step-wise addition (in the order listed) of the individual components of the vehicle to a weighed quantity of test compound in a volume that yielded the desired final concentration. Each formulation was prepared by mixing a weighed quantity of test compound with the appropriate volume of vehicle. • Dosing Solution Analysis: The dosing solutions were analyzed by LC-MS/MS. The dosing solutions were diluted into mouse blood and analyzed in triplicate. All concentrations are expressed as mg/mL of the free base. The nominal dosing level was used in all calculations for Group 1.
• Species and strain: mouse; male CD-1 • Mean weight: 0.034 kg for the IV arm; 0.027 kg for PO arm • Number: 6 animals total (three animals per dosing group (Group 1 (IV) and Group 2 (PO)), per study) • COMPLIANCE: This non-clinical study followed established practices and standard operating procedures of Absorption Systems as well as the study protocol. This study was exploratory in nature and was not conducted in accordance with the principles set forth in the United States Food and Drug Administration (FDA) Good Laboratory Practice (GLP) Regulations, 21 Code of Federal regulations (CFR) Part 58. The report is archived in a validated scientific data management system. Electronic signatures comply with the regulation 21 CFR Part 11.
Blood was collected from mice at pre-dose and at 5, 15 and 30 min, and 1, 2, 4, 8, 24 and 48 h post-dose. Hemolyzed blood samples were extracted by protein precipitation using acetonitrile. Following protein extraction with acetonitrile, compound levels were measured by LC-MS/MS. Pharmacokinetic parameters were calculated from the time course of the blood concentrations. Pharmacokinetic parameters were determined with Phoenix WinNonlin (v8.0) software using a non-compartmental model. The maximum blood concentrations (CO) after IV dosing were estimated by extrapolation of the first two time points back to t=0. The maximum blood concentration (Cmax) and the time to reach maximum blood concentration (tmax) after PO dosing were observed from the data. The area under the time concentration curve (AUC) was calculated using the linear trapezoidal rule with calculation to the last quantifiable data point, and with extrapolation to infinity if applicable. Blood half-life (t ½) was calculated from 0.693/slope of the terminal elimination phase. Mean residence time, MRT, was calculated by dividing the area under the moment curve (AUMC) by the AUC. Clearance (CL) was calculated from dose/AUC. Steady-state volume of distribution (Vss) was calculated from CL*MRT. Bioavailability was determined by dividing the individual dose normalized PO AUC∞ values by the average dose-normalized IV AUC∞ value. Any samples below the limit of quantitation (1.00 ng/mL) were treated as zero for pharmacokinetic data analysis.

[4] = Metabolic stability and clearance in mouse liver microsomes; assay type: in vitro ADME; settings: 30 minute incubation
Experimental: as §1, §2

[5] = Metabolic stability and clearance in human liver microsomes; assay type: in vitro ADME
Experimental: as §1, §2

## Cc1cc(C(=O)O)nc(N2CCC(COc3ccccc3C(F)(F)F)C2)n1 (racemic) [Compound (±)-44, (±)-6-Methyl-2-(3-((2-(trifluoromethyl)phenoxy)methyl)pyrrolidin-1-yl)pyrimidine-4-carboxylic Acid]
Abca4−/−/Rdh8−/− mice
  photoreceptor protection (ONL thickness): partially reversed; also recorded: Photoreceptor protection is evident at multiple points in the superior retina
hERG
  IC50: > 30000 nM
RBP4
  IC50: 80 nM
[1]
  fraction unbound: 0.04
[2]
  Liver Microsomal Stability (% remaining at 30 min), RLM: 93%
[3]; IV 2 mg/kg
  CL: 0.832 mL/min/kg
[3]; PO 5 mg/kg
  AUCINF: 52439 ng·h/mL
  t1/2: 9.9 h
[3]; mouse, whole blood, IV 2 mg/kg
  AUC(0-inf): 40300 ng·h/mL
  AUC(0-t): 39500 ng·h/mL
  clearance: 0.832 mL/min/kg
  half-life: 8.6 h
[3]; mouse, whole blood, IV 2 mg/kg, blood
  C0: 9130 ng/mL
[3]; mouse, whole blood, IV 2 mg/kg, read-out: Vss
  Vd: 0.518 L/kg
[3]; mouse, whole blood, PO 5 mg/kg vs IV 2 mg/kg
  bioavailability: 52%
[3]; mouse, whole blood, PO 5 mg/kg
  AUC(0-inf): 52400 ng·h/mL
  AUC(0-t): 50400 ng·h/mL
  Tmax: 0.83 h
  half-life: 9.9 h
[3]; mouse, whole blood, PO 5 mg/kg, blood
  Cmax: 3030 ng/mL
[4]
  Liver Microsomal Stability (% remaining at 30 min), MLM: 95%
[5]; 30 minute incubation
  Liver Microsomal Stability (% remaining at 30 min), HLM: 105%
[5]; both sexes, human liver microsomes, read-out: Microsomal CLint, H
  microsomal CLint at 1 μM: < 0.0231 µL/min/mg
